In PubChem BioAssay (NCI):
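A five-concentration, 48-hour dose response in 96-well plates underlies each endpoint, interpolated linearly between surrounding concentrations. Definition used: TGI = concentration required for complete inhibition of growth.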

Experiments:
Assay in all cases: NCI anticancer screen, dose series, 48 h
RXF-631 renal = tested on: RXF-631 renal
DMS 114 small cell lung = tested on: DMS 114 small cell lung
LXFL 529 NSCLC = tested on: LXFL 529 NSCLC
BT-549 breast = tested on: BT-549 breast
SNB-78 CNS = tested on: SNB-78 CNS
MDA-N = tested on: MDA-N
KM20L2 colon = tested on: KM20L2 colon
HOP-18 NSCLC = tested on: HOP-18 NSCLC
DLD-1 colon = tested on: DLD-1 colon

Compound | TGI (RXF-631 renal) [µM] | TGI (DMS 114 small cell lung) [µM] | TGI (LXFL 529 NSCLC) [µM] | TGI (BT-549 breast) [µM] | TGI (SNB-78 CNS) [µM] | TGI (MDA-N) [µM] | TGI (KM20L2 colon) [µM] | TGI (HOP-18 NSCLC) [µM] | TGI (DLD-1 colon) [µM]
Cc1ccc(NC(=O)CCc2nnc3s/c(=C\C=C\c4ccccc4)c(=O)n23)cc1 | > 100 | > 100 | > 100 | > 100 | > 100 | > 100 | > 100 | > 100 | > 100
COc1ccc2c(c1)c1ccc3c(c1n2C)C(=O)C=CC3=O | > 45.5 | 47.4 | 30.2 | 10.3 | 45.5 | 24.1 | > 57.3 | 24.7 | 20.9
CCCCCCCCCCNC(=S)OC | > 100 | 44.9 | > 100 |  | > 100 |  | > 100 | > 100 | > 100
